Test results published in US11053204B2, “Pyrimidinyloxy benzene derivatives as herbicides” (FMC Corporation, priority 2015, dated 2021).

How the values were obtained:
Test in all cases: Test C preemergence, plant response rating
Format in all cases: in vivo
Conditions in all cases: Preemergence
[1] = test system: foxtail, giant (giant foxtail, Setaria faberii)
Text: (§1) Seeds of plant species selected from blackgrass (Alopecurus myosuroides), ryegrass, Italian (Italian ryegrass, Lolium multiflorum), wheat (winter wheat, Triticum aestivum), galium (catchweed bedstraw, Galium aparine), corn (Zea mays), crabgrass, large (large crabgrass, Digitaria sanguinalis), foxtail, giant (giant foxtail, Setaria faberii), johnsongrass (Sorghum halepense), lambsquarters (Chenopodium album), morningglory (Ipomoea coccinea), nutsedge, yellow (yellow nutsedge, Cyperus esculentus), pigweed (Amaranthus retroflexus), ragweed (common ragweed, Ambrosia elatior), soybean (Glycine max), barnyardgrass (Echinochloa crus-galli), oilseed rape (Brassica napus), pigweed, palmer (palmer pigweed, Amaranthus palmeri), waterhemp (common waterhemp, Amaranthus rudis), velvetleaf (Abutilon theophrasti), kochia (Kochia scoparia), surinam grass (Brachiaria decumbens), nightshade (eastern black nightshade, Solanum ptycanthum), wild poinsettia (Euphorbia heterophylla), windgrass (Apera spica-venti), and oat, wild (wild oat Avena fatua), were planted into a blend of loam soil and sand or a silt loam soil and treated preemergence with test chemicals formulated in a non-phytotoxic solvent mixture which included a surfactant.
(§2) At the same time, plants selected from these crop and weed species and also chickweed (common chickweed, Stellaria media), buckwheat, wild (wild buckwheat, Polygonum convolvulus), wild mustard (Sinapis arvensis), field poppy (Papaver rhoeas), field violet (Viola arvensis), geranium, cutleaf (cutleaf geranium, Geranium dissectum), Canada thistle (Cirsium arvense), and speedwell (bird's-eye speedwell, Veronica persica), were planted in pots containing Sunshine Redi-Earth® planting medium comprising spaghnum peat moss, vermiculite, starter nutrients and dolomitic limestone and treated with postemergence applications of test chemicals formulated in the same manner. Plants ranged in height from 2 to 18 cm (1- to 4-leaf stage) for postemergence treatments. Treated plants and controls were maintained in a greenhouse for 13 to 15 d, after which time all species were compared to controls and visually evaluated. Plant response ratings, summarized in Table C, are based on a scale of 0 to 100 where 0 is no effect and 100 is complete control. A dash (-) response means no test result.

[2] = test system: nutsedge, yellow (yellow nutsedge, Cyperus esculentus)
Text: as §1, §2

[3] = test system: wheat (winter wheat, Triticum aestivum)
Text: as §1, §2

[4] = test system: waterhemp (common waterhemp, Amaranthus rudis)
Text: as §1, §2

[5] = test system: morningglory (Ipomoea coccinea)
Text: as §1, §2

[6] = test system: crabgrass, large (large crabgrass, Digitaria sanguinalis)
Text: as §1, §2

[7] = test system: oilseed rape (Brassica napus)
Text: as §1, §2

[8] = test system: ryegrass, Italian (Italian ryegrass, Lolium multiflorum)
Text: as §1, §2

[9] = test system: soybean (Glycine max)
Text: as §1, §2

[10] = test system: corn (Zea mays)
Text: as §1, §2

[11] = test system: blackgrass (Alopecurus myosuroides)
Text: as §1, §2

[12] = test system: velvetleaf (Abutilon theophrasti)
Text: as §1, §2

[13] = test system: lambsquarters (Chenopodium album)
Text: as §1, §2

[14] = test system: ragweed (common ragweed, Ambrosia elatior)
Text: as §1, §2

SMILES: N#Cc1cccc(Oc2ncc(Cl)cn2)c1CCCC(F)(F)F [Compound 72]
- Plant response rating, Foxtail, Giant ([1]; 62 g ai/ha, scale of 0 to 100): 75
- Plant response rating, Foxtail, Giant ([1]; 125 g ai/ha, scale of 0 to 100): 100
- Plant response rating, Foxtail, Giant ([1]; 16 g ai/ha, scale 0 to 100): 55
- Plant response rating, Foxtail, Giant ([1]; 31 g ai/ha, scale 0 to 100): 80
- Plant response rating, Nutsedge, Yellow ([2]; 125 g ai/ha, scale of 0 to 100): 0
- Plant response rating, Nutsedge, Yellow ([2]; 16 g ai/ha, scale 0 to 100): 0
- Plant response rating, Nutsedge, Yellow ([2]; 31 g ai/ha, scale 0 to 100): 0
- Plant response rating, Nutsedge, Yellow ([2]; 62 g ai/ha, scale 0 to 100): 0
- Plant response rating, Wheat ([3]; 125 g ai/ha, scale of 0 to 100): 80
- Plant response rating, Wheat ([3]; 16 g ai/ha, scale 0 to 100): 0
- Plant response rating, Wheat ([3]; 31 g ai/ha, scale 0 to 100): 0
- Plant response rating, Wheat ([3]; 62 g ai/ha, scale 0 to 100): 30
- Plant response rating, Waterhemp ([4]; 125 g ai/ha, scale of 0 to 100): 100
- Plant response rating, Waterhemp ([4]; 16 g ai/ha, scale 0 to 100): 100
- Plant response rating, Waterhemp ([4]; 31 g ai/ha, scale 0 to 100): 100
- Plant response rating, Waterhemp ([4]; 62 g ai/ha, scale 0 to 100): 100
- Plant response rating, Morningglory ([5]; 125 g ai/ha, scale of 0 to 100): 95
- Plant response rating, Morningglory ([5]; 16 g ai/ha, scale 0 to 100): 10
- Plant response rating, Morningglory ([5]; 31 g ai/ha, scale 0 to 100): 40
- Plant response rating, Morningglory ([5]; 62 g ai/ha, scale 0 to 100): 55
- Plant response rating, Crabgrass, Large ([6]; 62 g ai/ha, scale of 0 to 100): 100
- Plant response rating, Crabgrass, Large ([6]; 125 g ai/ha, scale of 0 to 100): 100
- Plant response rating, Crabgrass, Large ([6]; 16 g ai/ha, scale 0 to 100): 100
- Plant response rating, Crabgrass, Large ([6]; 31 g ai/ha, scale 0 to 100): 100
- Plant response rating, Oilseed Rape ([7]; 125 g ai/ha, scale of 0 to 100): 100
- Plant response rating, Oilseed Rape ([7]; 16 g ai/ha, scale 0 to 100): 5
- Plant response rating, Oilseed Rape ([7]; 31 g ai/ha, scale 0 to 100): 80
- Plant response rating, Oilseed Rape ([7]; 62 g ai/ha, scale 0 to 100): 80
- Plant response rating, Ryegrass, Italian ([8]; 125 g ai/ha, scale of 0 to 100): 100
- Plant response rating, Ryegrass, Italian ([8]; 16 g ai/ha, scale 0 to 100): 10
- Plant response rating, Ryegrass, Italian ([8]; 31 g ai/ha, scale 0 to 100): 45
- Plant response rating, Ryegrass, Italian ([8]; 62 g ai/ha, scale 0 to 100): 45
- Plant response rating, Soybean ([9]; 125 g ai/ha, scale of 0 to 100): 90
- Plant response rating, Soybean ([9]; 16 g ai/ha, scale 0 to 100): 0
- Plant response rating, Soybean ([9]; 31 g ai/ha, scale 0 to 100): 0
- Plant response rating, Soybean ([9]; 62 g ai/ha, scale 0 to 100): 15
- Plant response rating, Corn ([10]; 62 g ai/ha, scale of 0 to 100): 20
- Plant response rating, Corn ([10]; 125 g ai/ha, scale of 0 to 100): 60
- Plant response rating, Corn ([10]; 16 g ai/ha, scale 0 to 100): 5
- Plant response rating, Corn ([10]; 31 g ai/ha, scale 0 to 100): 20
- Plant response rating, Blackgrass ([11]; 62 g ai/ha, scale of 0 to 100): 98
- Plant response rating, Blackgrass ([11]; 125 g ai/ha, scale of 0 to 100): 100
- Plant response rating, Blackgrass ([11]; 16 g ai/ha, scale 0 to 100): 60
- Plant response rating, Blackgrass ([11]; 31 g ai/ha, scale 0 to 100): 98
- Plant response rating, Velvetleaf ([12]; 125 g ai/ha, scale of 0 to 100): 100
- Plant response rating, Velvetleaf ([12]; 16 g ai/ha, scale 0 to 100): 10
- Plant response rating, Velvetleaf ([12]; 31 g ai/ha, scale 0 to 100): 60
- Plant response rating, Velvetleaf ([12]; 62 g ai/ha, scale 0 to 100): 55
- Plant response rating, Lambsquarters ([13]; 125 g ai/ha, scale of 0 to 100): 100
- Plant response rating, Lambsquarters ([13]; 16 g ai/ha, scale 0 to 100): 65
- Plant response rating, Lambsquarters ([13]; 31 g ai/ha, scale 0 to 100): 80
- Plant response rating, Lambsquarters ([13]; 62 g ai/ha, scale 0 to 100): 90
- Plant response rating, Ragweed ([14]; 125 g ai/ha, scale of 0 to 100): 45
- Plant response rating, Ragweed ([14]; 16 g ai/ha, scale 0 to 100): 0
- Plant response rating, Ragweed ([14]; 31 g ai/ha, scale 0 to 100): 0
- Plant response rating, Ragweed ([14]; 62 g ai/ha, scale 0 to 100): 40
